Laboratory results taken from patent US12153062B2, “Method for estimating physical property of aqueous sample” (Kao Corporation, priority 2018, dated 2024).

How the values were obtained:
Format in all cases: physicochemical
[1] = Amount of phase-changing probe 2-EHDG required until phase structure changes (Wm phase to Om phase + W phase); liquid physical property index read from calibration curve
[2] = Amount of phase-changing probe BDG required until phase structure changes (Om phase + W phase to Wm phase); conditions: surfactant 200 mmol/kg; C16 isoparaffin 4 g per 100 g; 25° C.; for calibration curve 2
Method: (§1) Using the following components, precursor samples and standard samples for preparing calibration curves were prepared, and using any of the following phase-changing probes, an amount of the phase-changing probe required until a phase structure of a standard sample changed was quantified for each of a plurality of surfactants (G). The calibration curves were prepared from the plurality of quantitative values obtained. • Surfactant (G): a plurality of polyoxyethylene lauryl ethers with different average numbers of added moles of the ethylene oxide • Oil component: an isoparaffin with an average number of carbons of 16 (hereinafter, referred to as C16 isoparaffin) • Phase-changing probe: 2-ethylhexyl diglycol or butyldiglycol
(§2) The concentration of surfactant (G) in each precursor sample was 200 mmol/kg (the balance was water).
(§3) The amount of the oil component added per 100 g of each precursor sample was determined to be 4 g by assigning 50 to X in the aforementioned formula (I).
On the other hand, in the case where an average number of added moles of the ethylene oxide of surfactant (G) was relatively small (the average number of added moles was 2 to 5), the initial phase structure of the standard sample was a mixed system of a reversed micellar oil solution phase (Om phase) and a water phase (W phase). For this standard sample, butyldiglycol (hereinafter, sometimes also referred to as BDG) was used as the phase-changing probe, and an amount of the phase-changing probe required until a phase structure of the standard sample changed from a mixed system of a reversed micellar oil solution phase (Om phase) and a water phase (W phase) to a micellar solution phase (Wm phase) was taken as the quantitative value.
(§4) Note that, in either case, the ambient temperature when the phase-changing probe was added to the standard sample was 25° C. Further, in either case, the phase-changing probe was added to the standard sample under the condition of being stirred with a magnetic stirrer.
(§5) Note that the quantitative values and HLB values were entered into spreadsheet software “Excel” (manufactured by Microsoft Corporation) to be processed, thereby obtaining the calibration curves as regression lines (calibration curves 1 and 2). Calibration curves 1 and 2 are shown in Graph A (FIG. 1).

[3] = Amount of phase-changing probe 2-EHDG required until phase structure changes (Wm phase to Om phase + W phase); liquid physical property index read from calibration curve; conditions: for Solution physical property index (corresponding HLB) from calibration curve: 100 mmol/kg
Method: as §1, §2, §3
For this standard sample, 2-ethylhexyl diglycol (hereinafter, sometimes also referred to as 2-EHDG) was used as the phase-changing probe, and an amount of the phase-changing probe required until a phase structure of the standard sample changed from a micellar solution phase (Wm phase) to a mixed system of a reversed micellar oil solution phase (Om phase) and a water phase (W phase) was taken as the quantitative value.
as §4, §5
As the oil components, components shown in Table 3 were used; as the phase-changing probe, 2-EHDG was used; and the concentration of surfactant (G) in each precursor sample was 100 mmol/kg. Note that, in this example, the amount of an oil component added per 100 g of each precursor sample was determined to be 2 g by assigning 50 to X in the aforementioned formula (I).
A measurement sample was prepared by adding 2 g of any of the oil components shown in Table 3 per 100 g of the aqueous sample.
2-EHDG as the phase-changing probe was added to the measurement sample under the same conditions as those for preparing the calibration curves, and an amount of the phase-changing probe required until a phase structure changed was quantified.

[4] = surfactant 100 mmol/kg, solvent BDG 5 mass %, C16 isoparaffin 2 g per 100 g, 25° C., calibration curve 10, no inorganic salt
[5] = surfactant 100 mmol/kg, solvent BDG 5 mass %, C16 isoparaffin 2 g per 100 g, no inorganic salt
[6] = surfactant 200 mmol/kg, C16 isoparaffin 4 g per 100 g, 25° C., for calibration curve 1
[7] = concentration of polyoxyethylene lauryl ether 5 mmol/kg, C16 isoparaffin 0.1 g per 100 g, calibration curve 8
[8] = surfactant 100 mmol/kg, oil component C16 isoparaffin 2 g per 100 g, calibration curve 3
[9] = surfactant 100 mmol/kg, oil component Cyclohexane 2 g per 100 g, calibration curve 7
[10] = surfactant 100 mmol/kg, oil component Decane 2 g per 100 g, calibration curve 4
[11] = surfactant 100 mmol/kg, oil component Hexadecane 2 g per 100 g, calibration curve 6
[12] = surfactant 100 mmol/kg, oil component Tetradecane 2 g per 100 g, calibration curve 5
[13] = concentration of polyoxyethylene lauryl ether 350 mmol/kg, C16 isoparaffin 7 g per 100 g, calibration curve 9

Compound: Sodium polyoxyethylene (4 moles on average) lauryl ether sulfate
- Quantitative value (g) of phase-changing probe (2-EHDG) [1, 4]: 19.88 g
- Solution physical property index (corresponding HLB) from calibration curve 10 [1, 5]: 17.96

Compound: polyoxyethylene lauryl ether [Polyoxyethylene lauryl ether 5]
- Quantitative value (g) of phase-changing probe (BDG) [2]: 5.5 g
- Quantitative value (g) of phase-changing probe (2-EHDG) [1, 4]: 2.12 g

Compound: polyoxyethylene lauryl ether [Polyoxyethylene lauryl ether 3]
- Quantitative value (g) of phase-changing probe (BDG) [2]: 13.2 g

Compound: polyoxyethylene lauryl ether [Polyoxyethylene lauryl ether 21]
- Quantitative value (g) of phase-changing probe (2-EHDG) [3, 6]: 11.92 g
- Quantitative value (g) of phase-changing probe (2-EHDG) [1, 7]: 1.28 g

Compound: CCCCC(CC)COC(=O)CC(C(=O)OCC(CC)CCCC)S(=O)(=O)[O-].[Na+] (stereo not drawn) [Sodium di-2-ethylhexylsulfosuccinate]
- Quantitative value (g) of phase-changing probe (2-EHDG) [1, 4]: 5.50 g
- Solution physical property index (corresponding HLB) from calibration curve 10 [1, 5]: 11.93

Compound: polyoxyethylene lauryl ether [Polyoxyethylene lauryl ether 2]
- Quantitative value (g) of phase-changing probe (BDG) [2]: 18.57 g

Compound: polyoxyethylene lauryl ether [Polyoxyethylene lauryl ether 9]
- Quantitative value (g) of phase-changing probe (2-EHDG) [3, 8]: 7.58 g
- Quantitative value (g) of phase-changing probe (2-EHDG) [3, 9]: 5.84 g
- Quantitative value (g) of phase-changing probe (2-EHDG) [3, 10]: 6.98 g
- Quantitative value (g) of phase-changing probe (2-EHDG) [3, 11]: 7.74 g
- Quantitative value (g) of phase-changing probe (2-EHDG) [3, 12]: 7.6 g
- Quantitative value (g) of phase-changing probe (2-EHDG) [3, 6]: 5.38 g
- Quantitative value (g) of phase-changing probe (2-EHDG) [1, 7]: 0.46 g
- Quantitative value (g) of phase-changing probe (2-EHDG) [1, 13]: 9.36 g
- Quantitative value (g) of phase-changing probe (2-EHDG) [1, 4]: 9.46 g

Compound: polyoxyethylene (6 moles on average) lauryl ether [Polyoxyethylene lauryl ether 6]
- Quantitative value (g) of phase-changing probe (2-EHDG) [3, 8]: 2.96 g
- Quantitative value (g) of phase-changing probe (2-EHDG) [3, 9]: 1.96 g
- Quantitative value (g) of phase-changing probe (2-EHDG) [3, 10]: 2.78 g
- Quantitative value (g) of phase-changing probe (2-EHDG) [3, 11]: 3.4 g
- Quantitative value (g) of phase-changing probe (2-EHDG) [3, 12]: 3.2 g
- Quantitative value (g) of phase-changing probe (2-EHDG) [3, 6]: 1.7 g
- Quantitative value (g) of phase-changing probe (2-EHDG) [1, 7]: 0.24 g
- Quantitative value (g) of phase-changing probe (2-EHDG) [1, 13]: 2.44 g
- Quantitative value (g) of phase-changing probe (2-EHDG) [1, 4]: 4.76 g

Compound: CCCCCCCCCCCCCC[N+](C)(C)[O-] [Myristyl dimethylamine oxide]
- Quantitative value (g) of phase-changing probe (2-EHDG) [1, 4]: 4.72 g
- Solution physical property index (corresponding HLB) from calibration curve 10 [1, 5]: 11.60

Compound: polyoxyethylene lauryl ether [Polyoxyethylene lauryl ether 4]
- Quantitative value (g) of phase-changing probe (BDG) [2]: 7.29 g
- Quantitative value (g) of phase-changing probe (2-EHDG) [1, 4]: 1.16 g

Compound: CCCCCCCC[N+](C)(C)Cc1ccccc1.[Cl-] [Octyldimethylbenzylammonium chloride]
- Quantitative value (g) of phase-changing probe (2-EHDG) [1, 4]: 9.20 g
- Solution physical property index (corresponding HLB) from calibration curve 10 [1, 5]: 13.48

Compound: CCCCCCCCCCCC[N+](C)(C)C.[Cl-] [Lauryltrimethylammonium chloride]
- Quantitative value (g) of phase-changing probe (2-EHDG) [1, 4]: 11.04 g
- Solution physical property index (corresponding HLB) from calibration curve 10 [1, 5]: 14.25

Compound: polyoxyethylene lauryl ether [Polyoxyethylene lauryl ether 12]
- Quantitative value (g) of phase-changing probe (2-EHDG) [3, 8]: 10.24 g
- Quantitative value (g) of phase-changing probe (2-EHDG) [3, 9]: 8.24 g
- Quantitative value (g) of phase-changing probe (2-EHDG) [3, 10]: 9.4 g
- Quantitative value (g) of phase-changing probe (2-EHDG) [3, 11]: 10.24 g
- Quantitative value (g) of phase-changing probe (2-EHDG) [3, 12]: 10.02 g
- Quantitative value (g) of phase-changing probe (2-EHDG) [3, 6]: 7.4 g
- Quantitative value (g) of phase-changing probe (2-EHDG) [1, 7]: 0.94 g
- Quantitative value (g) of phase-changing probe (2-EHDG) [1, 13]: 11.76 g
- Quantitative value (g) of phase-changing probe (2-EHDG) [1, 4]: 12.5 g

Compound: CCCCCCCCCCCC[N+](C)(C)Cc1ccccc1.[Cl-] [Lauryldimethylbenzylammonium chloride]
- Quantitative value (g) of phase-changing probe (2-EHDG) [1, 4]: 10.36 g
- Solution physical property index (corresponding HLB) from calibration curve 10 [1, 5]: 13.97

Compound: CCCCCCCCCCCC[N+](C)(C)CC(O)CS(=O)(=O)[O-] (stereo not drawn) [N-lauryl-N,N-dimethyl-N-(2-hydroxysulfopropyl)ammonium sulfobetaine]
- Solution physical property index (corresponding HLB) from calibration curve ([3]; oil component C16 isoparaffin, calibration curve 3): 11.46
- Solution physical property index (corresponding HLB) from calibration curve ([3]; oil component Decane, calibration curve 4): 11.52
- Solution physical property index (corresponding HLB) from calibration curve ([3]; oil component Hexadecane, calibration curve 6): 11.44
- Solution physical property index (corresponding HLB) from calibration curve ([3]; oil component Tetradecane, calibration curve 5): 11.47
- Quantitative value (g) of phase-changing probe (2-EHDG) [3, 8]: 2.36 g
- Quantitative value (g) of phase-changing probe (2-EHDG) [3, 9]: 1.15 g
- Quantitative value (g) of phase-changing probe (2-EHDG) [3, 10]: 2.36 g
- Quantitative value (g) of phase-changing probe (2-EHDG) [3, 11]: 2.78 g
- Quantitative value (g) of phase-changing probe (2-EHDG) [3, 12]: 2.66 g
- Quantitative value (g) of phase-changing probe (2-EHDG) [1, 4]: 3.60 g

Compound: Sodium polyoxyethylene (2 moles on average) lauryl ether sulfate
- Quantitative value (g) of phase-changing probe (2-EHDG) [1, 4]: 17.68 g
- Solution physical property index (corresponding HLB) from calibration curve 10 [1, 5]: 17.04

Compound: CCCCCCCCCCCCCCCC[N+](C)(C)C.[Cl-] [Palmityltrimethylammonium chloride]
- Quantitative value (g) of phase-changing probe (2-EHDG) [1, 4]: 9.12 g
- Solution physical property index (corresponding HLB) from calibration curve 10 [1, 5]: 13.45

Compound: Lauryl glucoside
- Quantitative value (g) of phase-changing probe (2-EHDG) [1, 4]: 4.44 g
- Solution physical property index (corresponding HLB) from calibration curve 10 [1, 5]: 11.48
